# Experimental data from patent US20150366890A1, “COMPOSITIONS AND METHODS FOR TREATING FUNGAL INFECTIONS” (TRUSTEES OF BOSTON UNIVERSITY, priority 2013, published 2015).
# Columns and labels:
# Assay type in all cases: cell-based
# [1] = tested on: S. cerevisiae single-deletion yeast strains; assay: High-throughput 96-well screen of AF sensitivity of single-gene knockouts (CFU at start and after 8 hours)
# Procedure: To identify genes critical to AF action, the AF sensitivity of single-gene knockouts identified through the common transcriptional analysis were identified. In the first pass-through, 56 testable genes were identified. This set was later expanded to include targets identified through phenotypic analysis and metabolomic profiling, for a total of 84 target genes (Table 2). The initial 56 targets were tested using a rapid high-throughput 96-well assay with AMB and MCZ to identify single-gene knockouts with elevated resistance to AFs (Table 2). Knockouts that were more resistant to at least one of the AFs were tested individually using the 24-well colony forming (CF) assay. Target genes selected after the initial 56 strains were assayed individually using the 24-well CF assay.
# The first 56 S. cerevisiae strains were acquired from the deletion library and stored in 96-well plates in replicates of three. To start the assay, the plates were defrosted and 10 μl of stored cells were inoculated into 100 μl of fresh synthetic dextrose complete (SDC) media for 16 hours. These overnight cultures were diluted into a fresh 96-well plate with 100 μl of SDC to achieve an OD600 of approximately 0.2. Colony forming units (CFU) in each well were measured at the start of the assay and after 8 hours of incubation. The AF susceptibility of each strain was compared to that of wildtype. Strains with significant susceptibility differences from wildtype were assayed in 0.5 ml of SDC media using the 24-well plate CF assay described above.
# [2] = tested on: S. cerevisiae; assay: Mitochondrial activity by MitoTracker Red fluorescence; details: drug added to glucose-incubated (SC, 2% glucose) S. cerevisiae
# Procedure: It was next sought to assess the mitochondrial activity of AF-treated fungal cells. Yhe MitoTracker Red dye, which enters the mitochondrial matrix by utilizing the proton motive force and thus labels metabolically active mitochondria in viable cells was used (Arita et al., 2006; Tomas et al., 2011). Exponential phase S. cerevisiae were incubated in glucose-free synthetic complete (SC) media for 30 min and then switched to SC containing 2% glucose or non-fermentable acetate for 1.5 hours.
# (§1) Overnight yeast cultures were diluted into the indicated media and grown to an OD600 of 0.2, at which point the AFs were added. Colony forming units (CFU) were measured by plating six serial dilutions onto YPD agar plates. Cells treated with MCZ were washed before serial dilution to stop growth inhibition associated with high concentrations of MCZ. CFU were counted after three days of incubation on agar plates. When indicated, thiourea (Fluka) was added 30 min prior to the addition of AFs. HPF (10 μM) (Invitrogen) and Mito Tracker (1 μM) (Invitrogen) dyes were added to PBS-washed cells at the indicated time points and incubated for 30 min prior to flow cytometry measurements, which were taken on the FACSCalibur (Becton-Dickinson). All experiments described in this section were conducted in 0.5 ml of SDC in 24-well plates incubated at 900 rpm and 37° C. for C. albicans and 30° C. and 300 rpm for S. cerevisiae. TUNEL assays were conducted as previously described (Ribeiro et al., 2006) and are described in detail in the TUNEL section of the Experimental Procedures.
# [3] = tested on: C. albicans wildtype and DNA repair mutants; assay: Fungicidal killing, CFU assay; details: C. albicans rad50/rad50 and rad52/rad52, 3 hours of drug exposure
# Procedure: Overnight yeast cultures were diluted into the indicated media and grown to an OD600 of 0.2, at which point the AFs were added. Colony forming units (CFU) were measured by plating six serial dilutions onto YPD agar plates.
# as §1
smiles,measurement,setting,value
"C[C@@H]1[C@H](O)[C@@H](C)/C=C/C=C/C=C/C=C/C=C/C=C/C=C/[C@H](O[C@@H]2O[C@H](C)[C@@H](O)[C@H](N)[C@@H]2O)C[C@@H]2O[C@](O)(C[C@@H](O)C[C@@H](O)[C@H](O)CC[C@@H](O)C[C@@H](O)CC(=O)O[C@H]1C)C[C@H](O)[C@H]2C(=O)O [AMB, amphotericin B]","96 Well Screen, AF susceptibility vs wildtype","[1]; S. cerevisiae PAB101, WT",Normal
same,"96 Well Screen, AF susceptibility vs wildtype","[1]; S. cerevisiae PAB102, HSP104 deletion",Resistant (″Resistant″ or ″Sensitive″ indicate at least a 5-fold CFU difference from wildtype at the final time point)
same,"96 Well Screen, AF susceptibility vs wildtype","[1]; S. cerevisiae PAB103, SDH2 deletion",Resistant (″Resistant″ or ″Sensitive″ indicate at least a 5-fold CFU difference from wildtype at the final time point)
same,"96 Well Screen, AF susceptibility vs wildtype","[1]; S. cerevisiae PAB104, FRE8 deletion",Resistant (″Resistant″ or ″Sensitive″ indicate at least a 5-fold CFU difference from wildtype at the final time point)
same,"96 Well Screen, AF susceptibility vs wildtype","[1]; S. cerevisiae PAB105, CHA4 deletion",Resistant (″Resistant″ or ″Sensitive″ indicate at least a 5-fold CFU difference from wildtype at the final time point)
same,"96 Well Screen, AF susceptibility vs wildtype","[1]; S. cerevisiae PAB106, FMS1 deletion",Resistant (″Resistant″ or ″Sensitive″ indicate at least a 5-fold CFU difference from wildtype at the final time point)
same,"96 Well Screen, AF susceptibility vs wildtype","[1]; S. cerevisiae PAB107, NDE1 deletion",Resistant (″Resistant″ or ″Sensitive″ indicate at least a 5-fold CFU difference from wildtype at the final time point)
same,"96 Well Screen, AF susceptibility vs wildtype","[1]; S. cerevisiae PAB108, ALD3 deletion",Resistant (″Resistant″ or ″Sensitive″ indicate at least a 5-fold CFU difference from wildtype at the final time point)
same,"96 Well Screen, AF susceptibility vs wildtype","[1]; S. cerevisiae PAB109, GAD1 deletion",Normal
same,"96 Well Screen, AF susceptibility vs wildtype","[1]; S. cerevisiae PAB110, PGM3 deletion",Normal
same,"96 Well Screen, AF susceptibility vs wildtype","[1]; S. cerevisiae PAB111, PYK2 deletion",Resistant (″Resistant″ or ″Sensitive″ indicate at least a 5-fold CFU difference from wildtype at the final time point)
same,"96 Well Screen, AF susceptibility vs wildtype","[1]; S. cerevisiae PAB112, MNE1 deletion",Normal
same,"96 Well Screen, AF susceptibility vs wildtype","[1]; S. cerevisiae PAB113, FUM1 deletion",Normal
same,"96 Well Screen, AF susceptibility vs wildtype","[1]; S. cerevisiae PAB114, TPK2 deletion",Normal
same,"96 Well Screen, AF susceptibility vs wildtype","[1]; S. cerevisiae PAB115, ATG29 deletion",Resistant (″Resistant″ or ″Sensitive″ indicate at least a 5-fold CFU difference from wildtype at the final time point)
same,"96 Well Screen, AF susceptibility vs wildtype","[1]; S. cerevisiae PAB116, ISU1 deletion",Resistant (″Resistant″ or ″Sensitive″ indicate at least a 5-fold CFU difference from wildtype at the final time point)
same,"96 Well Screen, AF susceptibility vs wildtype","[1]; S. cerevisiae PAB117, CYC7 deletion",Normal
same,"96 Well Screen, AF susceptibility vs wildtype","[1]; S. cerevisiae PAB118, ARN1 deletion",Normal
same,"96 Well Screen, AF susceptibility vs wildtype","[1]; S. cerevisiae PAB119, CIT2 deletion",Resistant (″Resistant″ or ″Sensitive″ indicate at least a 5-fold CFU difference from wildtype at the final time point)
same,"96 Well Screen, AF susceptibility vs wildtype","[1]; S. cerevisiae PAB120, HSP30 deletion",Normal
same,"96 Well Screen, AF susceptibility vs wildtype","[1]; S. cerevisiae PAB121, SDH1 deletion",Normal
same,"96 Well Screen, AF susceptibility vs wildtype","[1]; S. cerevisiae PAB122, TPK3 deletion",Resistant (″Resistant″ or ″Sensitive″ indicate at least a 5-fold CFU difference from wildtype at the final time point)
same,"96 Well Screen, AF susceptibility vs wildtype","[1]; S. cerevisiae PAB123, ISU2 deletion",Normal
same,"96 Well Screen, AF susceptibility vs wildtype","[1]; S. cerevisiae PAB124, TPK1 deletion",Normal
same,"96 Well Screen, AF susceptibility vs wildtype","[1]; S. cerevisiae PAB125, MID2 deletion",Normal
same,"96 Well Screen, AF susceptibility vs wildtype","[1]; S. cerevisiae PAB126, SSK1 deletion",Sensitive (″Resistant″ or ″Sensitive″ indicate at least a 5-fold CFU difference from wildtype at the final time point)
same,"96 Well Screen, AF susceptibility vs wildtype","[1]; S. cerevisiae PAB127, HSP42 deletion",Normal
same,"96 Well Screen, AF susceptibility vs wildtype","[1]; S. cerevisiae PAB128, PIG1 deletion",Normal
same,"96 Well Screen, AF susceptibility vs wildtype","[1]; S. cerevisiae PAB130, UGA1 deletion",Resistant (″Resistant″ or ″Sensitive″ indicate at least a 5-fold CFU difference from wildtype at the final time point)
same,"96 Well Screen, AF susceptibility vs wildtype","[1]; S. cerevisiae PAB131, MTL1 deletion",Normal
same,"96 Well Screen, AF susceptibility vs wildtype","[1]; S. cerevisiae PAB132, CIT3 deletion",Resistant (″Resistant″ or ″Sensitive″ indicate at least a 5-fold CFU difference from wildtype at the final time point)
same,"96 Well Screen, AF susceptibility vs wildtype","[1]; S. cerevisiae PAB133, ZWF1 deletion",Normal
same,"96 Well Screen, AF susceptibility vs wildtype","[1]; S. cerevisiae PAB134, SUM1 deletion",sensitive
same,"96 Well Screen, AF susceptibility vs wildtype","[1]; S. cerevisiae PAB135, NDI1 deletion",Resistant (″Resistant″ or ″Sensitive″ indicate at least a 5-fold CFU difference from wildtype at the final time point)
same,"96 Well Screen, AF susceptibility vs wildtype","[1]; S. cerevisiae PAB136, PGM2 deletion",Normal
same,"96 Well Screen, AF susceptibility vs wildtype","[1]; S. cerevisiae PAB137, HFD1 deletion",Normal
same,"96 Well Screen, AF susceptibility vs wildtype","[1]; S. cerevisiae PAB138, PUF2 deletion",Normal
same,"96 Well Screen, AF susceptibility vs wildtype","[1]; S. cerevisiae PAB139, TDH1 deletion",Sensitive (″Resistant″ or ″Sensitive″ indicate at least a 5-fold CFU difference from wildtype at the final time point)
same,"96 Well Screen, AF susceptibility vs wildtype","[1]; S. cerevisiae PAB140, GUD1 deletion",Sensitive (″Resistant″ or ″Sensitive″ indicate at least a 5-fold CFU difference from wildtype at the final time point)
same,"96 Well Screen, AF susceptibility vs wildtype","[1]; S. cerevisiae PAB141, ATG15 deletion",Sensitive (″Resistant″ or ″Sensitive″ indicate at least a 5-fold CFU difference from wildtype at the final time point)
same,"96 Well Screen, AF susceptibility vs wildtype","[1]; S. cerevisiae PAB142, TDH2 deletion",Sensitive (″Resistant″ or ″Sensitive″ indicate at least a 5-fold CFU difference from wildtype at the final time point)
same,"96 Well Screen, AF susceptibility vs wildtype","[1]; S. cerevisiae PAB143, ATP1 deletion",Sensitive (″Resistant″ or ″Sensitive″ indicate at least a 5-fold CFU difference from wildtype at the final time point)
same,"96 Well Screen, AF susceptibility vs wildtype","[1]; S. cerevisiae PAB144, UGA2 deletion",Sensitive (″Resistant″ or ″Sensitive″ indicate at least a 5-fold CFU difference from wildtype at the final time point)
same,"96 Well Screen, AF susceptibility vs wildtype","[1]; S. cerevisiae PAB145, CIT1 deletion",Resistant (″Resistant″ or ″Sensitive″ indicate at least a 5-fold CFU difference from wildtype at the final time point)
same,"96 Well Screen, AF susceptibility vs wildtype","[1]; S. cerevisiae PAB146, SOLI deletion",Normal
same,"96 Well Screen, AF susceptibility vs wildtype","[1]; S. cerevisiae PAB147, PAN6 deletion",Normal
same,"96 Well Screen, AF susceptibility vs wildtype","[1]; S. cerevisiae PAB148, SOL4 deletion",Normal
same,"96 Well Screen, AF susceptibility vs wildtype","[1]; S. cerevisiae PAB149, YAK1 deletion",Sensitive (″Resistant″ or ″Sensitive″ indicate at least a 5-fold CFU difference from wildtype at the final time point)
same,"96 Well Screen, AF susceptibility vs wildtype","[1]; S. cerevisiae PAB150, PBS2 deletion",Sensitive (″Resistant″ or ″Sensitive″ indicate at least a 5-fold CFU difference from wildtype at the final time point)
same,"96 Well Screen, AF susceptibility vs wildtype","[1]; S. cerevisiae PAB152, GPD1 deletion",Sensitive (″Resistant″ or ″Sensitive″ indicate at least a 5-fold CFU difference from wildtype at the final time point)
same,"96 Well Screen, AF susceptibility vs wildtype","[1]; S. cerevisiae PAB153, SHO1 deletion",Sensitive (″Resistant″ or ″Sensitive″ indicate at least a 5-fold CFU difference from wildtype at the final time point)
same,"96 Well Screen, AF susceptibility vs wildtype","[1]; S. cerevisiae PAB154, FET3 deletion",Sensitive (″Resistant″ or ″Sensitive″ indicate at least a 5-fold CFU difference from wildtype at the final time point)
same,"96 Well Screen, AF susceptibility vs wildtype","[1]; S. cerevisiae PAB155, FBP1 deletion",Sensitive (″Resistant″ or ″Sensitive″ indicate at least a 5-fold CFU difference from wildtype at the final time point)
same,"96 Well Screen, AF susceptibility vs wildtype","[1]; S. cerevisiae PAB156, COX6 deletion",Sensitive (″Resistant″ or ″Sensitive″ indicate at least a 5-fold CFU difference from wildtype at the final time point)
same,increase of MitoTracker fluorescence,[2],60 fold
same,susceptibility of DSBR mutants compared to wildtype,[3],particularly susceptible
